Values after ≈ are worked out from the molar mass of the structure shown. Positions of bridges follow the written chain, without caps; N, C: chain ends. Residues, ends and D or L forms follow the SMILES beside them.
What was measured:
C. albicans ATCC 10231 = assay type: cell-based, Candida albicans
Experimental: (§1) Antimicrobial assays were conducted using standard broth micro‐dilutions, as mentioned previously.[11] Gram‐positive bacteria S. aureus (ATCC 6538), Methicillin‐resistant S. aureus (MRSA; NCTC 12493), […] (NCTC 12697), Gram‐negative bacteria Escherichia coli (ATCC 8739), Klebsiella pneumoniae (ATCC 43816), Pseudomonas aeruginosa (ATCC 9027), Acinetobacter baumannii (ATCC BAA 747), and yeast, Candida albicans (ATCC 10231) were used in the test. The experiments were conducted in three independent runs.

E. faecalis NCTC 12697 [1] = assay type: cell-based; conditions: NCTC 12697, 24 h
Experimental: (§2) Peptide solutions were first mixed with bacterial cultures (5 × 10^5 CFU/mL) and incubated at 37°C for 24 h. The planktonic bacterial cells were gently removed by washing with PBS the next day, and methanol was utilised to fix the biofilm. Crystal violet (0.1% v/v), PBS and acetic acid (30%, v/v) were subsequently used to stain biofilm, remove remaining stains and re‐dissolve stains, respectively. The absorbance was determined at 595 nm. The experiments were conducted in three independent runs.

MRSA NCTC 12493 [2] = assay type: cell-based, Methicillin‐resistant S. aureus; conditions: NCTC 12493, 24 h
Experimental: (§3) The bacterial culture (5 × 10^5 CFU/mL) was cultured in a sterile 96‐well plate for 24 h to generate mature biofilms. The planktonic bacteria were removed by washing three times with sterile PBS buffer. Then, fresh broth with different peptide concentrations was added to each well and further incubated for another 24 h. Then, the plate was stained with crystal violet. The stain was solubilised in 30% acetic acid, and the absorbance was measured at 595 nm. The experiments were conducted in three independent runs.

MRSA NCTC 12493 [3] = assay type: cell-based, Methicillin‐resistant S. aureus; conditions: NCTC 12493, 24 h; remark: listed apart in the source
Experimental: as §2

S. aureus ATCC 6538 [4] = assay type: cell-based, Staphylococcus aureus
Experimental: as §1

S. aureus ATCC 6538 [5] = assay type: cell-based, Staphylococcus aureus; conditions: ATCC 6538, 24 h
Experimental: as §2

K. pneumoniae ATCC 43816 [6] = assay type: cell-based, Klebsiella pneumoniae; conditions: ATCC 43816, 24 h
Experimental: as §2

horse erythrocytes = experiment: Haemolytic activity; assay type: cell-based; conditions: 128 μM peptide; horse erythrocytes 2% v/v, 37°C, 2 h; 0.1% Triton X‐100 positive control; absorbance 570 nm; three independent runs
Experimental: The haemolytic activity of peptides was conducted using horse erythrocytes (2%, v/v). Peptide solutions were mixed with washed horse erythrocyte suspension at 37°C for 2 h. Triton X‐100 (0.1%) was used as a positive control. The mixture was then centrifuged at 930 g for 5 min. The absorbance of the supernatants was detected at 570 nm. The haemolysis rate was calculated using the formula: Haemolysis%=Sample group−negative group/positive group−negative group×100%.
This experiment was performed in three independent runs.

P. aeruginosa ATCC 9027 [7] = assay type: cell-based, Pseudomonas aeruginosa
Experimental: as §1

MRSA NCTC 12493 [8] = assay type: cell-based, Methicillin‐resistant S. aureus
Experimental: as §1

S. aureus ATCC 6538 [9] = assay type: cell-based, Staphylococcus aureus; conditions: ATCC 6538, 24 h; remark: listed apart in the source
Experimental: as §3

P. aeruginosa ATCC 9027 [10] = assay type: cell-based, Pseudomonas aeruginosa; conditions: ATCC 9027, 24 h
Experimental: as §2

E. coli ATCC 8739 [11] = assay type: cell-based, Escherichia coli; conditions: ATCC 8739, 24 h
Experimental: as §3

E. faecalis NCTC 12697 [12] = assay type: cell-based
K. pneumoniae ATCC 43816 [13] = assay type: cell-based, Klebsiella pneumoniae; conditions: ATCC 43816, 24 h; remark: listed apart in the source
Experimental: as §3

E. faecalis NCTC 12697 [14] = assay type: cell-based; conditions: NCTC 12697, 24 h; remark: listed apart in the source
Experimental: as §3

[15] = test system: Gram‐positive and Gram‐negative test bacteria; assay type: cell-based; conditions: geometric mean of MICs against the three Gram‐negative strains
P. aeruginosa ATCC 9027 [16] = assay type: cell-based, Pseudomonas aeruginosa; conditions: ATCC 9027, 24 h; remark: listed apart in the source
Experimental: as §3

[17] = test system: Gram‐positive and Gram‐negative test bacteria; assay type: cell-based
Experimental: as §1

E. coli ATCC 8739 [18] = assay type: cell-based, Escherichia coli
Experimental: as §1

K. pneumoniae ATCC 43816 [19] = assay type: cell-based, Klebsiella pneumoniae
Experimental: as §1

E. coli ATCC 8739 [20] = assay type: cell-based, Escherichia coli; conditions: ATCC 8739, 24 h; remark: listed apart in the source
Experimental: as §2

CC[C@H](C)[C@@H]1NC(=O)[C@H](CCCCN)NC(=O)[C@@H](NC(=O)[C@H](CC(C)C)NC(=O)[C@@H](NC(=O)[C@H](CCCCN)NC(=O)[C@@H]2CCCN2C(=O)[C@H](CC(C)C)NC(=O)[C@H](Cc2ccccc2)NC(=O)[C@H](CC(N)=O)NC(=O)[C@H](C)NC(=O)[C@H](C)NC(=O)[C@H](CC(C)C)NC(=O)CNC(=O)[C@H](C)NC(=O)[C@@H](NC(=O)[C@H](CC(C)C)NC(=O)[C@@H]2CCCN2C(=O)[C@@H](N)Cc2ccccc2)[C@@H](C)CC)[C@@H](C)CC)CSSC[C@@H](C(=O)O)NC(=O)[C@H](CCCCN)NC(=O)[C@H](CCCNC(=N)N)NC(=O)[C@H](C)NC1=O [OG9] (H-FPLIAGLAANFLPKILCKIARKC-OH; disulfide 17-23)
MBC (C. albicans ATCC 10231): > 128 µM | MIC (C. albicans ATCC 10231): > 128 µM | MBIC (E. faecalis NCTC 12697 [1]): 32 µM | MBEC (MRSA NCTC 12493 [2]): > 128 µM | MBIC (MRSA NCTC 12493 [3]): 16 µM | MBC (S. aureus ATCC 6538 [4]): 8 µM (≈ 20 µg/mL) | MIC (S. aureus ATCC 6538 [4]): 4 µM (≈ 10 µg/mL) | MBIC (S. aureus ATCC 6538 [5]): 16 µM | MBIC (K. pneumoniae ATCC 43816 [6]): >128/>128 μM | Haemolysis (horse erythrocytes): around 85% | MBC (P. aeruginosa ATCC 9027 [7]): 16 µM (≈ 40 µg/mL) | MIC (P. aeruginosa ATCC 9027 [7]): 16 µM (≈ 40 µg/mL) | MBC (MRSA NCTC 12493 [8]): 32 µM (≈ 80 µg/mL) | MIC (MRSA NCTC 12493 [8]): 16 µM (≈ 40 µg/mL) | MBEC (S. aureus ATCC 6538 [9]): > 128 µM | MBIC (P. aeruginosa ATCC 9027 [10]): >128/>128 μM | MBEC (E. coli ATCC 8739 [11]): > 128 µM | MBC (E. faecalis NCTC 12697 [12]): 16 µM (≈ 40 µg/mL) | MIC (E. faecalis NCTC 12697 [12]): 16 µM (≈ 40 µg/mL) | MBEC (K. pneumoniae ATCC 43816 [13]): >128/>128 μM | MBEC (E. faecalis NCTC 12697 [14]): > 128 µM | GM MIC, G− [15]: 16 µM | MBEC (P. aeruginosa ATCC 9027 [16]): >128/>128 μM | GM MIC, total bacteria ([17]; geometric mean of MICs against all test bacteria): 12.7 µM | GM MIC, G+ ([17]; geometric mean of MICs against the three Gram‐positive strains): 10.1 µM | MBC (E. coli ATCC 8739 [18]): 4 µM (≈ 10 µg/mL) | MIC (E. coli ATCC 8739 [18]): 4 µM (≈ 10 µg/mL) | MBC (K. pneumoniae ATCC 43816 [19]): 64 µM (≈ 160 µg/mL) | MIC (K. pneumoniae ATCC 43816 [19]): 64 µM (≈ 160 µg/mL) | MBIC (E. coli ATCC 8739 [20]): 32 µM

Source: PMC10243163, “A frog‐derived antimicrobial peptide as a potential anti‐biofilm agent in combating Staphylococcus aureus skin infection” (Journal of Cellular and Molecular Medicine, 2023)
